From US20240239752A1, “BICYCLIC HETEROAROMATIC INHIBITORS OF KLK5” (BioCryst Pharmaceuticals, Inc., priority 2021, published 2024) come the findings set out here.

The structures appear in SMILES notation.

For this assay, the target named is T1, recombinant human KLK5 (Homo sapiens, UniProt Q9Y337).
T1 construct: purchased Novoprotein or R&D Systems C415 or 1108-SE
T1 sequence (Q9Y337 23-293): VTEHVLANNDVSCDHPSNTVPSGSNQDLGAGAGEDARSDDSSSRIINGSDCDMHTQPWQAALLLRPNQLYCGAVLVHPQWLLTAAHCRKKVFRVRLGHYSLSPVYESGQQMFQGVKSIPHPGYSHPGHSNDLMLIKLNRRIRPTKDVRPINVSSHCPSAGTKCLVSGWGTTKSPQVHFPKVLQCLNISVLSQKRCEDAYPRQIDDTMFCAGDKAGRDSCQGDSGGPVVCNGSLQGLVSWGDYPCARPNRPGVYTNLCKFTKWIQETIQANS
In words: Kallikrein (KLK) 5 enzymatic assay (Boc-VPR-AMC fluorogenic substrate). The conditions noted are these: recombinant human KLK5 0.1 μg/well, Boc-VPR-AMC 100 μM, pH 7.5, room temperature, 1% DMSO; tested a minimum of three times. Type of assay: biochemical. The method in brief:
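Recombinant human KLK5 (0.1 μg/well) was preincubated with compound at room temperature in 0.1 M NaH2PO4, pH 7.5, 1% DMSO, then started with 100 μM Boc-VPR-AMC. The rate was followed at 380/460 nm, and IC50 came from percent inhibition relative to enzyme alone, with at least three runs.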
On to `Nc1nccc2c(-c3ccc4c(c3)c(COc3ccccc3CC(=O)O)nn4CC3CCC3)cccc12` [Compound 252h, 2-(2-((5-(1-aminoisoquinolin-5-yl)-1-(cyclobutylmethyl)-1H-indazol-3-yl)methoxy)phenyl)acetic acid], for which the IC50 is less than 1 µM.

Regarding `Nc1nccc2ccc(-c3ccc4c(c3)c(COc3ccccc3CC(=O)O)nn4CC3CCC3)cc12` [Compound 253b, 2-(2-((5-(1-aminoisoquinolin-7-yl)-1-(cyclobutylmethyl)-1H-indazol-3-yl)methoxy)phenyl)acetic acid], the IC50 was less than 1 µM.

Regarding `N=C(N)c1cccc(-c2ccc3c(c2)c(COc2ccccc2CC(=O)O)nn3CC2CCC2)c1` [Compound 254c, 2-(2-((5-(3-carbamimidoylphenyl)-1-(cyclobutylmethyl)-1H-indazol-3-yl)methoxy)phenyl)acetic acid], the concentration for half-maximal inhibition (IC50) is less than 1 µM.

On to `COc1c(C(=N)N)cccc1-c1ccc2c(c1)c(COc1ccccc1CC(=O)O)nn2CC1CCC1` [Compound 255d, 2-(2-((5-(3-carbamimidoyl-2-methoxyphenyl)-1-(cyclobutylmethyl)-1H-indazol-3-yl)methoxy)phenyl)acetic acid], for which the IC50 was less than 1 µM.

For the molecule `Nc1nccc2c(-c3cc(-c4ccccc4)c4c(c3)C(Oc3ccccc3CC(=O)O)CC4)cccc12` (stereo not drawn) [Compound 256f, 2-(2-((6-(1-aminoisoquinolin-5-yl)-4-phenyl-2,3-dihydro-1H-inden-1-yl)oxy)phenyl)acetic acid], the IC50 was in the range of 1 to 10 µM.

As for `Nc1nccc2c(-c3cc(C4CC4)c4c(c3)C(Oc3ccccc3CC(=O)O)CC4)cccc12` (stereo not drawn) [Compound 257b, 2-(2-((6-(1-aminoisoquinolin-5-yl)-4-cyclopropyl-2,3-dihydro-1H-inden-1-yl)oxy)phenyl)acetic acid], the IC50 is less than 1 µM.

As to `Nc1nccc2c(-c3cc(Cl)c4c(c3)C(Oc3ccccc3CC(=O)O)CC4)cccc12` (stereo not drawn) [Compound 258a, 2-(2-((6-(1-aminoisoquinolin-5-yl)-4-chloro-2,3-dihydro-1H-inden-1-yl)oxy)phenyl)acetic acid], the IC50 was less than 1 µM.

Consider `Cc1cccc(O[C@@H]2CCc3ccc(-c4cccc5c(N)nccc45)cc32)c1CC(=O)O` [Compound 259c, (R)-2-(2-((6-(1-aminoisoquinolin-5-yl)-2,3-dihydro-1H-inden-1-yl)oxy)-6-methylphenyl)acetic acid], for which the IC50 was less than 1 µM.

In the case of `Cc1cccc(O[C@@H]2CCc3ccc(-c4ccc5ccnc(N)c5c4)cc32)c1CC(=O)O` [Compound 260b, (R)-2-(2-((6-(1-aminoisoquinolin-7-yl)-2,3-dihydro-1H-inden-1-yl)oxy)-6-methylphenyl)acetic acid], the IC50 is less than 1 µM.

As to `Nc1nccc2c(-c3cc(-c4ccoc4)c4c(c3)C(Oc3ccccc3CC(=O)O)CC4)cccc12` (stereo not drawn) [Compound 261b, 2-(2-((6-(1-aminoisoquinolin-5-yl)-4-(furan-3-yl)-2,3-dihydro-1H-inden-1-yl)oxy)phenyl)acetic acid], the IC50 is less than 1 µM.

Regarding `CC(C)n1nc(COc2ccccc2CC(=O)O)c2cc(-c3cccc(C(=N)N)c3O)ccc21` [Compound 262e, 2-(2-((5-(3-carbamimidoyl-2-hydroxyphenyl)-1-isopropyl-1H-indazol-3-yl)methoxy)phenyl)acetic acid], the IC50 is less than 1 µM.

As to `COc1c(C(=N)N)cccc1-c1ccc2c(c1)c(COc1ccccc1CC(=O)O)nn2C1CCCC1` [Compound 263d, 2-(2-((5-(3-carbamimidoyl-2-methoxyphenyl)-1-cyclopentyl-1H-indazol-3-yl)methoxy)phenyl)acetic acid], the IC50 was less than 1 µM.

As to `COc1c(C(=N)N)cccc1-c1ccc2c(c1)c(COc1ccccc1CC(=O)O)nn2C1CCOC1` (stereo not drawn) [Compound 264d, 2-(2-((5-(3-carbamimidoyl-2-methoxyphenyl)-1-(tetrahydrofuran-3-yl)-1H-indazol-3-yl)methoxy)phenyl)acetic acid], the IC50 is less than 1 µM.

Consider `Nc1nccc2c(-c3ccc4c(c3)c(COc3ccccc3CC(=O)O)nn4C3CCC(F)(F)C3)cccc12` (stereo not drawn) [Compound 265h, 2-(2-((5-(1-aminoisoquinolin-5-yl)-1-(3,3-difluorocyclopentyl)-1H-indazol-3-yl)methoxy)phenyl)acetic acid], for which the half-inhibitory concentration (IC50) is less than 1 µM.

Regarding `Nc1nccc2ccc(-c3ccc4c(c3)c(COc3ccccc3CC(=O)O)nn4C3CCC(F)(F)C3)cc12` (stereo not drawn) [Compound 266b, 2-(2-((5-(1-aminoisoquinolin-7-yl)-1-(3,3-difluorocyclopentyl)-1H-indazol-3-yl)methoxy)phenyl)acetic acid], the IC50 is less than 1 µM.

Turning to `COc1cccc(CC(=O)O)c1OCc1coc2c(OC)cc(-c3ccc4ccnc(N)c4c3)cc12` [Compound 267g, 2-(2-((5-(1-aminoisoquinolin-7-yl)-7-methoxybenzofuran-3-yl)methoxy)-3-methoxyphenyl)acetic acid], the IC50 was greater than 10 µM.

On to `N=C(N)c1cccc(-c2cc3c(COc4ccccc4C(O)C(=O)O)cccc3o2)c1` (stereo not drawn) [Compound 268d, 2-(2-((2-(3-carbamimidoylphenyl)benzofuran-4-yl)methoxy)phenyl)-2-hydroxyacetic acid], for which the IC50 fell in the range of 1 to 10 µM.

Take `COc1cc2nn(C3CCC3)c(COc3ccccc3CC(=O)O)c2cc1-c1ccc2ccnc(N)c2c1` [Compound 269f, 2-(2-((5-(1-aminoisoquinolin-7-yl)-2-cyclobutyl-6-methoxy-2H-indazol-3-yl)methoxy)phenyl)acetic acid]: the IC50 is less than 1 µM.

For `COc1cc2nn(C3CCC3)c(COc3ccccc3CC(=O)O)c2cc1-c1cccc2c(N)nccc12` [Compound 270b, 2-(2-((5-(1-aminoisoquinolin-5-yl)-2-cyclobutyl-6-methoxy-2H-indazol-3-yl)methoxy)phenyl)acetic acid], the IC50 was greater than 10 µM.

As to `COc1cc2nn(C3CCC3)c(COc3ccccc3CC(=O)O)c2cc1-c1cccc(C(=N)N)c1` [Compound 271c, 2-(2-((5-(3-carbamimidoylphenyl)-2-cyclobutyl-6-methoxy-2H-indazol-3-yl)methoxy)phenyl)acetic acid], the IC50 fell in the range of 1 to 10 µM.

`CC(C)Oc1c(C(=N)N)cccc1-c1ccc2c(c1)c(COc1ccccc1CC(=O)O)nn2C(C)C` [Compound 272f, 2-(2-((5-(3-carbamimidoyl-2-isopropoxyphenyl)-1-isopropyl-1H-indazol-3-yl)methoxy)phenyl)acetic acid]: the IC50 lay within 1 to 10 µM.

As for `CCOc1c(C(=N)N)cccc1-c1ccc2c(c1)c(COc1ccccc1CC(=O)O)nn2C(C)C` [Compound 273e, 2-(2-((5-(3-carbamimidoyl-2-ethoxyphenyl)-1-isopropyl-1H-indazol-3-yl)methoxy)phenyl)acetic acid], the IC50 is less than 1 µM.

As for `Nc1nccc2c(-c3ccc4c(c3)c(Cn3ccc5cccc(C(=O)O)c53)nn4C3CCOC3)cccc12` (stereo not drawn) [Compound 274e, 1-((5-(1-aminoisoquinolin-5-yl)-1-(tetrahydrofuran-3-yl)-1H-indazol-3-yl)methyl)-1H-indole-7-carboxylic acid], the IC50 fell in the range of 1 to 10 µM.

As to `Nc1nccc2ccc(-c3ccc4c(c3)c(Cn3ccc5cccc(C(=O)O)c53)nn4C3CCOC3)cc12` (stereo not drawn) [Compound 275b, 1-((5-(1-aminoisoquinolin-7-yl)-1-(tetrahydrofuran-3-yl)-1H-indazol-3-yl)methyl)-1H-indole-7-carboxylic acid], the IC50 is greater than 10 µM.

Regarding `Cc1cccc(OCc2nn(C3CCC(F)(F)C3)c3ccc(-c4cccc5c(N)nccc45)cc23)c1CC(=O)O` (stereo not drawn) [Compound 276c, 2-(2-((5-(1-aminoisoquinolin-5-yl)-1-(3,3-difluorocyclopentyl)-1H-indazol-3-yl)methoxy)-6-methylphenyl)acetic acid], the IC50 was less than 1 µM.

`Cc1cccc(OCc2nn(C3CCC(F)(F)C3)c3ccc(-c4ccc5ccnc(N)c5c4)cc23)c1CC(=O)O` (stereo not drawn) [Compound 277b, 2-(2-((5-(1-aminoisoquinolin-7-yl)-1-(3,3-difluorocyclopentyl)-1H-indazol-3-yl)methoxy)-6-methylphenyl)acetic acid]: the IC50 is less than 1 µM.

Turning to `CC(C)(C)OC(=O)NCc1cc(-c2cccc3c(N)nccc23)cc2c(COc3ccccc3CC(=O)O)nn(C3CCCCO3)c12` (stereo not drawn) [Compound 278c, 2-(2-((5-(1-aminoisoquinolin-5-yl)-7-(((tert-butoxycarbonyl)amino)methyl)-1-(tetrahydro-2H-pyran-2-yl)-1H-indazol-3-yl)methoxy)phenyl)acetic acid], the concentration for half-maximal inhibition (IC50) fell in the range of 1 to 10 µM.

With `Nc1nccc2c(-c3cnc4c(c3)c(COc3ccccc3CC(=O)O)cn4C3CCOC3)cccc12` (stereo not drawn) [Compound 279g, 2-(2-((5-(1-aminoisoquinolin-5-yl)-1-(tetrahydrofuran-3-yl)-1H-pyrrolo[2,3-b]pyridin-3-yl)methoxy)phenyl)acetic acid], the IC50 is less than 1 µM.

`NCc1cc(-c2cccc3c(N)nccc23)cc2c(COc3ccccc3CC(=O)O)n[nH]c12` [Compound 280a, 2-(2-((5-(1-aminoisoquinolin-5-yl)-7-(aminomethyl)-1H-indazol-3-yl)methoxy)phenyl)acetic acid]: the IC50 was 1 to 10 µM.

For `Nc1nccc2ccc(-c3ccc4c(c3)c(COc3ccccc3CC(=O)O)nn4C3CCOCC3)cc12` [Compound 281g, 2-(2-((5-(1-aminoisoquinolin-7-yl)-1-(tetrahydro-2H-pyran-4-yl)-1H-indazol-3-yl)methoxy)phenyl)acetic acid], the IC50 is less than 1 µM.

By IC50 is commonly meant the concentration needed to halve the response being measured.
